What was measured:
[1] = biological target: HDAC2 (Homo sapiens, UniProt Q92769); experiment: HDAC2 in vitro homogeneous fluorogenic deacetylase assay; format: biochemical; details: read-out: IC50 HDAC2; SD in parentheses; duplicate; substrate MAZ1600 22 µM
[2] = test system: MCF7 cells; experiment: Propidium iodide staining, cell cycle and cell death in MCF7 cells; format: cell-based; details: 1 µM, 48 hours, PI staining
[3] = biological target: HDAC1 (Homo sapiens, UniProt Q13547); experiment: HDAC1 in vitro homogeneous fluorogenic deacetylase assay; format: biochemical; details: read-out: IC50 HDAC1; SD in parentheses; duplicate; substrate MAZ1600 21 µM
[4] = biological target: T1, HDAC6 (Homo sapiens, UniProt Q9UBN7); experiment: HDAC6 in vitro homogeneous fluorogenic deacetylase assay; format: biochemical; details: read-out: IC50 HDAC6; SD in parentheses; duplicate; substrate MAZ1600 9 µM
T1 sequence (Q9UBN7 1-1215): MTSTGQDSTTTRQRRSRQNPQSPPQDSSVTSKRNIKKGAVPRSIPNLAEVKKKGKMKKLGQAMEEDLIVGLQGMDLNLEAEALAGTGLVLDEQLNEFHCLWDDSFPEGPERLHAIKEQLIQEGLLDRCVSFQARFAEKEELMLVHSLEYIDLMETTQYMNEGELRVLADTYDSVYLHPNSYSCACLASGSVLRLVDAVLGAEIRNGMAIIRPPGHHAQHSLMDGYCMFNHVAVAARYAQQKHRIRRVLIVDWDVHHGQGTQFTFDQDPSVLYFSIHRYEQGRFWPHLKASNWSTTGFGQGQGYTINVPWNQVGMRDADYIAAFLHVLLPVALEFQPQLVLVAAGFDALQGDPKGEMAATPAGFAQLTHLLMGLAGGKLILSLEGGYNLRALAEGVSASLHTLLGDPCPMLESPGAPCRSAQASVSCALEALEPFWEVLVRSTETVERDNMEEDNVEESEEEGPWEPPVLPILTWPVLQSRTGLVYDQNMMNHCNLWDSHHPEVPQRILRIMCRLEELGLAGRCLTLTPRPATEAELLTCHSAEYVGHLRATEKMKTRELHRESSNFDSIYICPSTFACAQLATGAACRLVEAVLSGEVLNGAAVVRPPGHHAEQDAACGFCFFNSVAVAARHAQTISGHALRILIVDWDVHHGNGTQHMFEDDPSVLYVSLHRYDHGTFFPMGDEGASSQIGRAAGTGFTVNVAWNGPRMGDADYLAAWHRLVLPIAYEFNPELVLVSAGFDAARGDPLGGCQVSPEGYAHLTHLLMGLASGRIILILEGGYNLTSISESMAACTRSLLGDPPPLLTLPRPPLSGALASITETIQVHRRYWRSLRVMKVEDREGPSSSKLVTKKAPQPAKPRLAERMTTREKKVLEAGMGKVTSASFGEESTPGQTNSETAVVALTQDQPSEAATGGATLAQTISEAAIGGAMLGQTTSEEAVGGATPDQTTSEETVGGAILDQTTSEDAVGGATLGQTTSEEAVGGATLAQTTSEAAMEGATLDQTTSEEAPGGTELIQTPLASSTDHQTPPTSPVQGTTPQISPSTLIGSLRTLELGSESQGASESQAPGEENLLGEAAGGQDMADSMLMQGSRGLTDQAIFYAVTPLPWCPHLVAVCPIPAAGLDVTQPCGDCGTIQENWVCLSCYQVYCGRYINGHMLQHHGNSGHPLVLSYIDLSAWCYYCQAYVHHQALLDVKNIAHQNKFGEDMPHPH

[5] = biological target: HDAC3 (Homo sapiens, UniProt O15379); experiment: HDAC3 in vitro homogeneous fluorogenic deacetylase assay; format: biochemical; details: read-out: IC50 HDAC3; SD in parentheses; duplicate; substrate MAZ1600 9 µM
Sequence of HDAC3 (O15379 whole entry): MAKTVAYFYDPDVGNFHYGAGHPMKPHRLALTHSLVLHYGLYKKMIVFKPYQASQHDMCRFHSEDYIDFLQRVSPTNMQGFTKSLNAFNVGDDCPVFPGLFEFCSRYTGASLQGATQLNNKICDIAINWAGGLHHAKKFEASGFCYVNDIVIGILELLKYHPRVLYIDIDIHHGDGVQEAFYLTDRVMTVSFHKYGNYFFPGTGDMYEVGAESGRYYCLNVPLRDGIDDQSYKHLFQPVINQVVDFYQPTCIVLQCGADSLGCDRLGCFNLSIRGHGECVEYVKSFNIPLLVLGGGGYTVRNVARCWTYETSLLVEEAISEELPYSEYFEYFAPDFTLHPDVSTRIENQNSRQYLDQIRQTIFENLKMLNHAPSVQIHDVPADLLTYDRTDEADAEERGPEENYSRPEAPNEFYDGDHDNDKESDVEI
Sequence of HDAC3 (Q9Y618 395-489 partner limits assumed): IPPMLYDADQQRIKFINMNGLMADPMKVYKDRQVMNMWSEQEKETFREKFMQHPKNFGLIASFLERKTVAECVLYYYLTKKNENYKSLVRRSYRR

Sequence of HDAC1 (Q13547 whole entry): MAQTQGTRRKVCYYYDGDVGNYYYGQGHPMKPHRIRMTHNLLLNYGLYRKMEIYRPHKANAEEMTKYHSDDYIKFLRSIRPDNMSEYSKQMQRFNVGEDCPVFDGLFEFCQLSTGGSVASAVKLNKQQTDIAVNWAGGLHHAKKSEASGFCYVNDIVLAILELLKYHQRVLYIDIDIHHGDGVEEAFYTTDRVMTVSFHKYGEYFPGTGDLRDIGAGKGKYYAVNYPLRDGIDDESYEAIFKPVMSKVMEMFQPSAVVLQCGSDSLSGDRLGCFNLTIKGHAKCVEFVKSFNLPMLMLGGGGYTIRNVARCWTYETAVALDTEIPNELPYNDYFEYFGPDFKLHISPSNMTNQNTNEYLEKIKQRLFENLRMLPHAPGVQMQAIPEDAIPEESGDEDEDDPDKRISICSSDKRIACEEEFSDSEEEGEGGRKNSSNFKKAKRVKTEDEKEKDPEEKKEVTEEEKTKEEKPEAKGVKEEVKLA
Sequence of HDAC2 (Q92769 whole entry): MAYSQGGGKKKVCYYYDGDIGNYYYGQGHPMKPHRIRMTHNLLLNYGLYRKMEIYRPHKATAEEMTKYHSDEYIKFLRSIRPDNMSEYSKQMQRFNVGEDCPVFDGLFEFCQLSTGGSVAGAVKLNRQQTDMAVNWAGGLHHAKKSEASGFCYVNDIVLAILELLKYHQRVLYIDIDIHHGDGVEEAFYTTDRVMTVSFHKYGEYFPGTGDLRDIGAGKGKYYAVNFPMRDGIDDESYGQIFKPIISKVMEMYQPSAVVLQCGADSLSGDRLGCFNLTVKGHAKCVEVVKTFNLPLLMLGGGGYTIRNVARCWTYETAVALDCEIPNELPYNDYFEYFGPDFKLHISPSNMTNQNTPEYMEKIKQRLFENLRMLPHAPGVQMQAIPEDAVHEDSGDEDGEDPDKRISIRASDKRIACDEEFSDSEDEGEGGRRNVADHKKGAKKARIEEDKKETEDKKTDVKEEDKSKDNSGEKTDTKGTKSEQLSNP

Question: How did the IC50 [1] turn out when `O=C(CCCCCCC(=O)N[c-]1cccc1)NO.[Fe+2].c1cc[cH-]c1` [Compound 7, N^1-Hydroxy-N^8-ferrocenyloctanediamide] was run?
Answer: Its IC50 is 11 nM.

Question: And the “cell cycle arrest and cell death” value [2]?
Answer: The value was “induced cell cycle arrest and cell death”.

Question: What about the IC50 [3] of the same compound?
Answer: The IC50 was 11 nM.

Question: What about the IC50 [4] of the same compound?
Answer: Its IC50 is 0.8 nM.

Question: What about the IC50 [5] of the same compound?
Answer: The IC50 was 18 nM.

— PMC3093745 (ACS Medicinal Chemistry Letters, 2011)
